From patent US7420056B2, “Substituted bicyclic imidazo-3-ylamine compounds” (Gruenenthal GmbH, priority 2004, dated 2008)
Where a name gives a salt, the structure may show the parent alone.

The compounds below were run against mGluR5 receptor (Sus scrofa, UniProt I3LUI7) (assay: Affinity for the mGluR5 receptor: inhibition of 3[H]-MPEP binding in pig brain homogenate). Details: 10 μM compound, 5 nM 3[H]-MPEP, read-out: mGluR5 receptor inhibition of ^3[H]-MPEP binding [10 μM] in % at a concentration of the example compounds of 10 μM.
mGluR5 receptor, sequence (I3LUI7 19-1212): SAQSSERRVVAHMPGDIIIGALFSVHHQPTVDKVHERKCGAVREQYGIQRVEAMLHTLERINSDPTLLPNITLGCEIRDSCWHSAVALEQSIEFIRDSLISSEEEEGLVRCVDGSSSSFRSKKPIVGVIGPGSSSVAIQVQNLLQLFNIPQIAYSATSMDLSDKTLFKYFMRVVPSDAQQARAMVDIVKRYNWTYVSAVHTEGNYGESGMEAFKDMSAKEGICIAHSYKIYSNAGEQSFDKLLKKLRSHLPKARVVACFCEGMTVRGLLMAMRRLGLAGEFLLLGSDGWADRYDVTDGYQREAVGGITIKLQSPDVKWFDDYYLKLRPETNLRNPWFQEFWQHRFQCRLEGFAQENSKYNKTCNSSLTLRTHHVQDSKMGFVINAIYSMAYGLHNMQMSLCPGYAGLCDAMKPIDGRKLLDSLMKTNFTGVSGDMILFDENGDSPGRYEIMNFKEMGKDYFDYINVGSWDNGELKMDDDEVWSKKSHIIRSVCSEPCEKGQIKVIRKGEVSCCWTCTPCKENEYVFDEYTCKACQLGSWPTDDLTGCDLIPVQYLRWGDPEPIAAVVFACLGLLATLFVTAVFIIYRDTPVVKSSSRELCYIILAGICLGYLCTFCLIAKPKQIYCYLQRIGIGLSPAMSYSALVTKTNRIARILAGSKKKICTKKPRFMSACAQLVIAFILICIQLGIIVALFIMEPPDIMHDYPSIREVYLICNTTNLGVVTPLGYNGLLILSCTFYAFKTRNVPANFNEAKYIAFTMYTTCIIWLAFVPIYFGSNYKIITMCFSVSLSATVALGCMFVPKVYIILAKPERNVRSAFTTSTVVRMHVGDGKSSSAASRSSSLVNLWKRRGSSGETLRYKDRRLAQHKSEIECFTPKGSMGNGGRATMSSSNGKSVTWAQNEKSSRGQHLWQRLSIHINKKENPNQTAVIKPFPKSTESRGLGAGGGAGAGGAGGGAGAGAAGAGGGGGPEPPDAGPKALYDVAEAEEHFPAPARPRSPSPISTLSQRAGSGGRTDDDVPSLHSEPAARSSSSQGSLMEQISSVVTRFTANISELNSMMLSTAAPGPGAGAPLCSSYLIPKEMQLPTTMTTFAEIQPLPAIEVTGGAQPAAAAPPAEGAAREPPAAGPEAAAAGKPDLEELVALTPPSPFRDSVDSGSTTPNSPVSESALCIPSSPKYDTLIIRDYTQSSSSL
Method: 1. Method for Determining Affinity for the mGluR5 Receptor
Pig brain homogenate is produced by homogenisation (Polytron Pt 3000, Kinematica AG, 10,000 revolutions per minute for 90 seconds) of pig brain hemispheres without medulla, cerebellum and pons in a buffer of pH 8.0 (30 mM Hepes, Sigma, order number H3375+1 tablet Complete Roche Diagnostics, order number 1836145 made up to 100 ml) in a ratio of 1:20 (brain weight/volume) and differential centrifugation at 900×g and 40,000×g. 450 μg of protein from brain homogenate is incubated in each case in 250 μl incubation batches in 96-well microtitre plates with 5 nM 3[H]-MPEP (Tocris, order number R1212) (MPEP=2-methyl-6-[…]) and the compounds to be investigated (10 μM in the test) in the buffer (as above) at room temperature for 60 minutes.
The batches are then filtered with the assistance of a Brandel Cell Harvester (Brandel, Grade Robotic 9600) on Unifilter plates with glass filter mats (Perkin Elmer, order number 6005177) and then washed 3 times with buffer (as above) using 250 μl per sample. The filter plates are then dried for 60 minutes at 55° C. Then 30 μl of Ultima Gold™ scintillating material (Packard BioScience, order number 6013159) is added per well and after 3 hours the samples are measured using the β counter (Microbeta, Perkin Elmer). Nonspecific binding is determined by the addition of 10 μM MPEP (Tocris, order number 1212).

SMILES	inhibition at 10 µM [%]
Cc1cc(Br)c2nc(-c3cccc(C#Cc4ccccn4)c3)c(NC(C)(C)C)n2c1 [Example 96, 8-bromo-N-tert-butyl-6-methyl-2-(3-(pyridin-2-ylethynyl)phenyl)imidazo[1,2-a]pyridin-3-amine]	79
CC(C)(C)CC(C)(C)Nc1c(-c2cccc(C#Cc3ccccn3)c2)nc2cnccn12 [Example 239, 2-(3-(pyridin-2-ylethynyl)phenyl)-N-(2,4,4-trimethylpentan-2-yl)imidazo[1,2-a]pyrazin-3-amine]	60
Cc1cc(Br)c2nc(-c3ccc(C#Cc4ccccn4)o3)c(NC3CCCC3)n2c1 [Example 246, 8-bromo-N-cyclopentyl-6-methyl-2-(5-(pyridin-2-ylethynyl)furan-2-yl)imidazo[1,2-a]pyridin-3-amine]	74
Cc1cccn2c(NCc3ccc(Cl)cc3)c(-c3ccc(C#Cc4ccccc4)s3)nc12 [Example 198, N-(4-chlorobenzyl)-8-methyl-2-(5-(phenylethynyl)thiophen-2-yl)imidazo[1,2-a]pyridin-3-amine]	67
Cc1cc(C)n2c(NC(C)c3ccccc3)c(-c3ccc(C#Cc4ccccc4)s3)nc2c1 (stereo not shown) [Example 29, [5,7-dimethyl-2-(5-phenylethynyl-thiophen-2-yl)-imidazo[1,2-a]pyridin-3-yl]-(1-phenyl-ethyl)-amine]	87
CCc1ccn2c(NC3CCCC3)c(-c3ccc(C#Cc4ccccn4)cc3)nc2c1 [Example 301, N-cyclopentyl-7-ethyl-2-(4-(pyridin-2-ylethynyl)phenyl)imidazo[1,2-a]pyridin-3-amine]	78
C(#Cc1ccc(-c2nc3ccccn3c2NC2CCCC2)cn1)c1ccccc1 [Example 281, N-cyclopentyl-2-(6-(phenylethynyl)pyridin-3-yl)imidazo[1,2-a]pyridin-3-amine]	83
CC(C)(C)Nc1c(-c2ccc(C#Cc3cc(F)cc(F)c3)s2)nc2ccccn12 [Example 349, N-tert-butyl-2-(5-((3,5-difluorophenyl)ethynyl)thiophen-2-yl)imidazo[1,2-a]pyridin-3-amine]	39
C(#Cc1csc(-c2nc3ccccn3c2NCC2CCCCC2)c1)c1ccccc1 [Example 208, N-(cyclohexylmethyl)-2-(4-(phenylethynyl)thiophen-2-yl)imidazo[1,2-a]pyridin-3-amine]	57
COc1cccc(Nc2c(-c3ccc(C#Cc4ccccc4)s3)nc3ccc(C)cn23)c1 [Example 41, (3-methoxy-phenyl)-[6-methyl-2-(5-phenylethynyl-thiophen-2-yl)-imidazo[1,2-a]pyridin-3-yl]-amine]	73
Cc1cccc(C#Cc2cccc(-c3nc4cnccn4c3NC3CCCC3)c2)n1 [Example 249, N-cyclopentyl-2-(3-((6-methylpyridin-2-yl)ethynyl)phenyl)imidazo[1,2-a]pyrazin-3-amine]	80
CCc1ccn2c(NC3CCCC3)c(-c3ccc(C#Cc4ccccc4)nc3)nc2c1 [Example 302, N-cyclopentyl-7-ethyl-2-(6-(phenylethynyl)pyridin-3-yl)imidazo[1,2-a]pyridin-3-amine]	55
Clc1ccc(CCNc2c(-c3cc(C#Cc4ccccc4)cs3)nc3cc(-c4ccccc4)ccn23)cc1 [Example 228, N-(4-chlorophenethyl)-7-phenyl-2-(4-(phenylethynyl)thiophen-2-yl)imidazo[1,2-a]pyridin-3-amine]	43
CCCCC(C)(C)Nc1c(-c2cc(C#Cc3ccccc3)cs2)nc2cnccn12 [Example 200, N-(2-methylhexan-2-yl)-2-(4-(phenylethynyl)thiophen-2-yl)imidazo[1,2-a]pyrazin-3-amine]	62
CC(C)(C)Nc1c(-c2ccc(C#Cc3ccc(Cl)s3)s2)nc2ccccn12 [Example 338, tert-butyl-{2-[5-(5-chloro-thiophen-2-ylethynyl)-thiophen-2-yl]-imidazo[1,2-a]pyridin-3-yl}-amine hydrochloride]	52
CC(C)c1ccn2c(NC3CCCCC3)c(-c3ccc(C#Cc4ccccn4)o3)nc2c1 [Example 308, N-cyclohexyl-7-isopropyl-2-(5-(pyridin-2-ylethynyl)furan-2-yl)imidazo[1,2-a]pyridin-3-amine]	70
C(#Cc1ccc(-c2nc3ncccn3c2NCC2CCCCC2)s1)c1ccccc1 [Example 9, cyclohexylmethyl-[2-(5-phenylethynyl-thiophen-2-yl)-imidazo[1,2-a]pyrimidin-3-yl]-amine]	98
COc1cccc(Nc2c(-c3ccc(C#Cc4ccccc4)s3)nc3cc(C)cc(C)n23)c1 [Example 42, [5,7-dimethyl-2-(5-phenylethynyl-thiophen-2-yl)-imidazo[1,2-a]pyridin-3-yl]-(3-methoxy-phenyl)-amine]	93
C(#Cc1ccccn1)c1cccc(-c2nc3ccccn3c2NC2CCCC2)c1 [Example 260, N-cyclopentyl-2-(3-(pyridin-2-ylethynyl)phenyl)imidazo[1,2-a]pyridin-3-amine]	64
C(#Cc1ccc(-c2nc3cnccn3c2NC2CCCC2)s1)c1ccccc1 [Example 1, cyclopentyl-[2-(5-phenylethynyl-thiophen-2-yl)-imidazo[1,2-a]pyrazin-3-yl]-amine]	52

Same assay, conditions: 3[H]-MPEP binding

SMILES	IC50 [nM]
Cc1cc(-c2nc3cnccn3c2NC(C)(C)C)sc1C#Cc1ccccn1 [Example 164, N-tert-butyl-2-(4-methyl-5-(pyridin-2-ylethynyl)thiophen-2-yl)imidazo[1,2-a]pyrazin-3-amine hydrochloride]	54
Cc1ccn2c(NC(C)(C)C)c(-c3ccc(C#Cc4ccccc4)s3)nc2c1 [Example 101, N-tert-butyl-7-methyl-2-(5-(phenylethynyl)thiophen-2-yl)imidazo[1,2-a]pyridin-3-amine]	2470
CC(C)(C)Nc1c(-c2cnc(C#Cc3ccccn3)s2)nc2cnccn12 [Example 181, N-tert-butyl-2-(2-(pyridin-2-ylethynyl)thiazol-5-yl)imidazo[1,2-a]pyrazin-3-amine]	18
CC(C)(C)Nc1c(-c2ccc(C#Cc3cccs3)s2)nc2ccccn12 [Example 343, N-tert-butyl-2-(5-(thiophen-2-ylethynyl)thiophen-2-yl)imidazo[1,2-a]pyridin-3-amine hydrochloride]	93
Cc1ccsc1C#Cc1ccc(-c2nc3cnccn3c2NC(C)(C)C)s1 [Example 137, N-tert-butyl-2-(5-((3-methylthiophen-2-yl)ethynyl)thiophen-2-yl)imidazo[1,2-a]pyrazin-3-amine]	860
CC(C)(C)Nc1c(-c2ccc(C#Cc3cccc(C4OCCO4)c3)s2)nc2ccccn12 [Example 334, tert-butyl-{2-[5-(3-[1,3]dioxolan-2-yl-phenylethynyl)-thiophen-2-yl]-imidazo[1,2-a]pyridin-3-yl}-amine]	10000
CC(C)(C)CC(C)(C)Nc1c(-c2ccc(C#Cc3ccccn3)s2)nc2cnccn12 [Example 64, [2-(5-pyridin-2-ylethynyl-thiophen-2-yl)-imidazo[1,2-a]pyrazin-3-yl]-(1,1,3,3-tetramethyl-butyl)-amine]	33
CC(C)(C)Nc1c(-c2ccc(C#Cc3cscn3)s2)nc2cnccn12 [Example 152, N-tert-butyl-2-(5-(thiazol-4-ylethynyl)thiophen-2-yl)imidazo[1,2-a]pyrazin-3-amine hydrochloride]	23
Cc1ccc(C#Cc2ccc(-c3nc4cnccn4c3NC(C)(C)C)s2)cc1 [Example 161, N-tert-butyl-2-(5-(p-tolylethynyl)thiophen-2-yl)imidazo[1,2-a]pyrazin-3-amine]	7740
CCCCNc1c(-c2ccc(C#Cc3ccccc3)s2)nc2cnccn12 [Example 70, butyl-[2-(5-phenylethynyl-thiophen-2-yl)-imidazo[1,2-a]pyrazin-3-yl]-amine]	1060
Cc1cccc(C#Cc2ccc(-c3nc4cnccn4c3NC(C)(C)CC(C)(C)C)s2)n1 [Example 86, 2-(5-((6-methylpyridin-2-yl)ethynyl)thiophen-2-yl)-N-(2,4,4-trimethylpentan-2-yl)imidazo[1,2-a]pyrazin-3-amine]	320
COc1ccccc1C#Cc1ccc(-c2nc3cnccn3c2NC(C)(C)C)s1 [Example 112, N-tert-butyl-2-(5-((2-methoxyphenyl)ethynyl)thiophen-2-yl)imidazo[1,2-a]pyrazin-3-amine hydrochloride]	7520
CC(C)(C)Nc1c(-c2ccc(C#Cc3ccccn3)s2)nc2ncccn12 [Example 141, N-tert-butyl-2-(5-(pyridin-2-ylethynyl)thiophen-2-yl)imidazo[1,2-a]pyrimidin-3-amine]	2.8
CC(C)(C)Nc1c(-c2ccc(C#Cc3ccc(F)c(C#N)c3)s2)nc2ccccn12 [Example 344, 5-((5-(3-(tert-butylamino)imidazo[1,2-a]pyridin-2-yl)thiophen-2-yl)ethynyl)-2-fluorobenzonitrile hydrochloride]	170
